Read-outs that look alike come from different tables or passages of the source.
Columns and labels:
[1] = tested on: canine heartworm microfilariae; assay: Effects on canine heartworm (motility of microfilariae); design: key: At least two-thirds of the heartworms died; B: Substantially all the heartworms were affected in some way, or at least one-third died; C: No influence, or less than one-third of the heartworms died; conditions: 3.13 ppm in RPMI1640 liquid culture medium, 37° C., observed for 48 hours
Experimental: The activities of the compounds were evaluated based on changes in the motility of microfilariae in canine heartworm. The respective compounds were dissolved in a RPMI1640 liquid culture medium to a concentration of 3.13 ppm, following which about 20 canine heartworm microfilariae were placed in each culture fluid and cultured at 37° C.
Criteria A: At least two-thirds of the heartworms died • B: Substantially all the heartworms were affected in some way, or at least one-third died • C: No influence, or less than one-third of the heartworms died

[2] = tested on: white-backed rice planthopper; assay: White-backed rice planthopper control test (foliar application); assay type: in vivo; conditions: 100 ppm foliar application, second-instar larvae on rice seedlings, 4 days after release
Experimental: (§1) Rice seedlings grown in pots were subjected to the foliar application of solutions of the inventive compounds at a predetermined concentration prepared to 50% acetone/water (containing 0.05% Tween 20). The treated seedlings were air dried, following which second-instar larvae were released onto the seedlings. The seedlings and larvae were then held in an incubation chamber at 25° C. (16-hour period of light, 8-hour dark period). Four days after released, the numbers of live and dead insects were counted, and the mortality was calculated from the following formula. This was a two-replication test. Mortality (%)=[number of dead insects/(number of live insects+number of dead insects)]×100

cotton aphid = assay: whole plant or invertebrate; assay type: in vivo; conditions: Aphis gossypii, foliar
Method in brief: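 Cucumber leaf discs (2.0 cm) sprayed with compound in 50% acetone/water with 0.05% Tween 20, air-dried, then infested with first-instar cotton aphids. Held at 25 °C under 16 h light/8 h dark; mortality counted after 3 days, two replicates.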

small brown planthopper [3] = assay: whole plant or invertebrate; assay type: in vivo; conditions: Laodelphax striatellus, 72 h
Method in brief: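 Rice seedlings in pots soil-drenched with compound at a set concentration in 10% acetone/water; ten second-instar larvae released per seedling 3 days later. Held at 25° C. (16 h light/8 h dark) and scored live/dead 3 days after release. Mortality (%) = dead/(live+dead)×100; two replications.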

small brown planthopper [4] = assay: whole plant or invertebrate; assay type: in vivo; conditions: Laodelphax striatellus, in Triticum aestivum, 96 h
Method in brief: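 Roots of 48-h wheat seedlings took up compound in 10% acetone/water for 72 h, then ten second-instar larvae were released per seedling and held at 25 °C (16 h light/8 h dark). Mortality counted four days after release; two replications.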

diamondback moth = assay: whole plant or invertebrate; assay type: in vivo; conditions: Plutella xylostella, foliar
Method in brief: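 Cabbage leaf discs sprayed with compound in 50% acetone/water with 0.05% Tween 20, air-dried, then infested with second-instar larvae. Held at 25 °C under 16 h light/8 h dark; mortality from dead/(live+dead) counts after 3 days, two replicates.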

rice leaf bug = assay: whole plant or invertebrate; assay type: in vivo; conditions: foliar, 72 h
Method in brief: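 Four-day wheat seedling shoots dipped 30 s in compound solution (50% acetone/water, 0.05% Tween 20), air-dried, then infested with two second-instar larvae per glass cylinder at 25 °C, 16 h light/8 h dark. Mortality (%) counted after 3 days.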

greenhouse whitefly = assay: whole plant or invertebrate; assay type: in vivo; conditions: Cucumis sativus, foliar, 336 h
Experimental: Adult greenhouse whiteflies were released onto cucumber plants grown in pots, and allowed to laid eggs overnight. One day after the start of oviposition, the adults were removed, and the plants and eggs were held in an incubation chamber at 25° C. (16-hour period of light, 8-hour dark period). Three days after the end of oviposition, leaf discs 2.0 cm in diameter were cut from the cucumber plants and, after confirming oviposition thereon, the leaf discs were sprayed with solutions of the inventive compounds at a predetermined concentration prepared to 50% acetone/water (containing 0.05% Tween 20). After spraying, the treated leaf discs were held in an incubation chamber at 25° C. (16-hour period of light, 8-hour dark period). Fourteen days after spraying, the numbers of live and dead insects were counted, and the mortality was calculated from the following formula. This was a two-replication test. Mortality (%)=[(number of oviposited eggs−number of live insects)/number of oviposited eggs]×100

western flower thrips = assay: whole plant or invertebrate; assay type: in vivo; conditions: Frankliniella occidentalis, foliar
Method in brief: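 Bean leaf discs sprayed with compound in 50% acetone/water with 0.05% Tween 20, air dried, then infested with first-instar larvae. Held at 25° C under 16 h light/8 h dark; live and dead counted after 3 days to give % mortality, two replicates.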

small brown planthopper [5] = assay: whole plant or invertebrate; assay type: in vivo; conditions: Laodelphax striatellus, foliar
Experimental: as §1, with “Three” for “Four”

common cutworm = assay: whole plant or invertebrate; assay type: in vivo; conditions: for Insecticidal effects (mortality), common cutworm third-instar larvae: foliar application
Method in brief: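 Cabbage leaf discs (5.0 cm) sprayed with compound at a set concentration in 50% acetone/water with 0.05% Tween 20, air dried, then infested with third-instar larvae. Held at 25° C., 16 h light/8 h dark; dead and live larvae counted after 3 days, two replicates, mortality (%) = dead/(live+dead)×100.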

[6] = tested on: brown rice planthopper having a low susceptibility to insecticides; assay type: in vivo; conditions: 0.05 mg/seedling soil drenching
Experimental: (§2) Rice seedlings grown in pots were subjected to soil drenching treatment with solutions of the inventive compounds at a predetermined concentration prepared to 10% acetone/water. Three days after treatment, ten second-instar brown rice planthopper larvae having a low susceptibility to insecticides were released onto each seedling. The seedlings and insects were then held in an incubation chamber at 25° C. (16-hour period of light, 8-hour dark period). Three days after released, the numbers of live and dead insects were counted, and the mortality was calculated from the following formula. The test was carried out as two replications. Mortality (%)=[number of dead insects/(number of live insects+number of dead insects)]×100
The pests used in this test were insects that had been raised indoors for successive generations over a long period of time (susceptible line), and insects that had been raised indoors for successive generations after being collected (I) in 2007 within Kumamoto Prefecture and (II) in 2005 within Fukuoka Prefecture (field-collected lines).

[7] = tested on: small brown planthopper having a low susceptibility to insecticides; assay: Small brown planthopper control test, pests having a low susceptibility to insecticides (soil drenching); assay type: in vivo; conditions: 0.01 mg/seedling soil drenching
Experimental: as §2, with “second-instar small” for “second-instar”, “brown” for “brown rice”
The pests used in this test were insects that had been raised indoors for successive generations over a long period of time (susceptible line), and insects that had been raised indoors for successive generations after being collected in 2006 within Kumamoto Prefecture (field-collected line).

[8] = tested on: house fly crude enzyme extract; assay: In vitro metabolic test using house fly crude enzyme extract; assay type: in vitro ADME; conditions: house fly crude enzyme extract with NADP+ regenerating system, 25° C., 40 hours, LC/MS
Experimental: As mentioned in Pest Management Science, 59(3), 347-352 (2003) and the Journal of Pesticide Science, 29(2), 110-116 (2004), imidacloprid is known to be inactivated by incurring oxidative metabolism, which is thought to be one mechanism of acquiring resistance to this agent. The following experiment was carried out to confirm the effects in pests which have acquired such resistance.
An amount of 10 mL of a potassium phosphate buffer solution (pH 7.4, containing 1 mM EDTA) was added to adult house flies (0.645 g), and the flies were thoroughly homogenized in a Physcotron (Niti-On Medical and Physical Instruments Manufacturing Co.). The homogenate was then centrifuged at 10,000 g for 15 minutes. The resulting supernatant was additionally centrifuged at 100,000 g for 60 minutes, giving a precipitate. The precipitate was dissolved in 1 mL of a potassium phosphate buffer, and the resulting solution was used as the crude enzyme extract. The enzyme extraction operations were all carried out on ice or at 4° C.
The reagents were mixed in the following proportions within a 1.5 mL tube, and the reaction was effected at 25° C. for 40 hours. Following the reaction, 1 mL of acetone was added and the mixture was stirred, following which the precipitate that formed was centrifuged at 12,000 rpm for 5 minutes. […]

[9] = tested on: Haemaphysalis longicornis; assay type: in vivo; conditions: 10 ppm acetone solution (30 μL) dry film, larval ticks, 1 day after release
Experimental: Glass vials having a capacity of 4 mL were each filled with 30 μL of an acetone solution containing 200 ppm or 10 ppm of the respective compounds. These filled vials were placed on a shaker and air-dried while being spun, thereby forming dry films of the compounds on the inner walls of the vials. After the vials had been dried for at least 24 hours, ten larval ticks (Haemaphysalis longicornis) were released into each vial, following which the vials were capped. The vials were then left at rest in an incubation chamber at 25° C., 85% humidity and complete darkness. One day after released, the numbers of live and dead ticks were counted, and the mortality was calculated from the following formula.
This test was carried out as two replications. Mortality (%)=[number of dead ticks/(number of live ticks+number of dead ticks)]×100

[10] = read-out: Insecticidal effects (mortality), cotton aphid first-instar larvae
[11] = soil, read-out: Insecticidal effects (mortality), small brown planthopper second-instar larvae
[12] = read-out: Insecticidal effects (mortality), small brown planthopper second-instar larvae
[13] = read-out: Insecticidal effects (mortality), diamondback moth second-instar larvae
[14] = read-out: Insecticidal effects (mortality), western flower thrips first-instar larvae

With CSCCN(C#N)Cc1ccc(Cl)nc1 [Compound 1, 2-chloro-5-[N-cyano-N-(2-methylthioethyl)]aminomethylpyridine] the “Microfilaricidal effect (motility rating)” value [1] was “B” and the Mortality [2] was “at least 80%”.
In the case of O=C(N=c1ccccn1Cc1ccc(F)nc1)C(F)(F)F [Compound 229, N-[1-((6-fluoropyridin-3-yl)methyl)pyridin-2(1H)-ylidene]-2,2,2-trifluoroacetamide], the mortality at 1.25 ppm (cotton aphid; [10]) is reported as 80%, the mortality at 5 ppm (cotton aphid; [10]) is reported as 95% and the mortality at 20 ppm (cotton aphid; [10]) is reported as 100%. For the same compound, the mortality at 100 ppm (cotton aphid; [10]) was 100%, the mortality at 500 ppm (cotton aphid; [10]) was 100% and the mortality at 20 ppm (cotton aphid; in Cucumis sativus, 72 h) was at least 80%. For the same compound, the mortality at 100 ppm (cotton aphid; in Cucumis sativus, 72 h) was at least 80%, the mortality at 500 ppm (cotton aphid; in Cucumis sativus, 72 h) was at least 80% and the pest or weed control at 0.005 mg/pot (small brown planthopper [3]; rice soil drenching, 0.005 mg/pot (Table 13), read-out: Small brown planthopper (rice soil drenching), effect) was 30%. The pest or weed control at 0.01 mg/pot (small brown planthopper [3]; rice soil drenching, 0.01 mg/pot (Table 13), read-out: Small brown planthopper (rice soil drenching), effect) was 100%, the pest or weed control at 0.05 mg/pot (small brown planthopper [3]; rice soil drenching, 0.05 mg/pot (Table 13), read-out: Small brown planthopper (rice soil drenching), effect) was 100% and the mortality at 0.05 mg/seedling (small brown planthopper [3]; soil) was at least 80%. It also gave a mortality at 0.005 mg/pot (small brown planthopper [3]; [11]) of 30%, a mortality at 0.01 mg/pot (small brown planthopper [3]; [11]) of 100% and a mortality at 0.05 mg/pot (small brown planthopper [3]; [11]) of 100%. For the same compound, the mortality at 20 µg/seedling (small brown planthopper [4]) was at least 80%, the mortality at 0.063 mg/seedling (small brown planthopper [4]; [12]) was 25% and the mortality at 0.25 mg/seedling (small brown planthopper [4]; [12]) was 75%. The mortality at 0.5 mg/seedling (small brown planthopper [4]; [12]) was 100%, the mortality at 2 mg/seedling (small brown planthopper [4]; [12]) was 100% and the mortality at 20 ppm (diamondback moth; [13]) was 40%. The mortality at 100 ppm (diamondback moth; [13]) was 100%, the mortality at 500 ppm (diamondback moth; [13]) was 100% and the mortality at 100 ppm (diamondback moth; in Brassica oleracea, 72 h) was at least 80%. For the same compound, the mortality at 500 ppm (diamondback moth; in Brassica oleracea, 72 h) was at least 80%, the mortality at 50 ppm (rice leaf bug) was at least 80% and the mortality at 100 ppm (greenhouse whitefly) was at least 80%. For the same compound, the mortality at 500 ppm (western flower thrips; 72 h) was at least 80%, the mortality at 100 ppm (western flower thrips; [14]) was 60% and the mortality at 500 ppm (western flower thrips; [14]) was 100%. The mortality at 5 ppm (small brown planthopper [5]; [12]) was 95%, the mortality at 100 ppm (small brown planthopper [5]; in Oryza sativa, 72 h) was at least 80% and the “Insecticidal effects (mortality), common cutworm third-instar larvae” value (common cutworm; 100 ppm) was 30. For the same compound, the “Insecticidal effects (mortality), common cutworm third-instar larvae” value (common cutworm; 500 ppm) was 100 and the mortality at 500 ppm (common cutworm; foliar, 72 h) was at least 80%.
With O=[N+]([O-])NC1=NCCN1Cc1ccc(Cl)nc1 [imidacloprid] the Mortality ([6]; field-collected line (I) 2007 Kumamoto Prefecture) was 40%, the Mortality ([6]; field-collected line (II) 2005 Fukuoka Prefecture) was 60% and the Mortality ([6]; susceptible line) was 100%. For the same compound, the Mortality ([7]; field-collected line (2006 Kumamoto Prefecture)) was 50%, the Mortality ([7]; susceptible line) was 100% and the “Sum of the surface area percentages for the metabolites” value [8] was 2.55%. The Mortality [9] was 4%.

Source: US10085449B2, “N-[1-((6-chloropyridin-3-yl)methyl)pyridin-2(1H)-ylidene]-2,2,2- trifluoroacetamide for control of agricultural/horticultural pests” (priority 2010, dated 2018)
